In ChEMBL document CHEMBL5649169 (ChemMedChem, 2018):

Tests used:
[1] = target: Ephrin type-A receptor 1 (Homo sapiens) (UniProt P21709)
[2] = target: Aldehyde dehydrogenase X, mitochondrial (Homo sapiens) (UniProt P30837)
[3] = target: Annexin A6 (Homo sapiens) (UniProt P08133)
[4] = target: AP-3 complex subunit sigma-1 (Homo sapiens) (UniProt Q92572)
[5] = target: Atlastin-3 (Homo sapiens) (UniProt Q6DD88)
[6] = target: ATP synthase F(0) complex subunit f, mitochondrial (Homo sapiens) (UniProt P56134)
[7] = target: Serine/threonine-protein kinase B-raf (Homo sapiens) (UniProt P15056)
[8] = target: Calmodulin-1 (Homo sapiens) (UniProt P0DP23)
[9] = target: Calcium/calmodulin-dependent protein kinase type II subunit gamma (Homo sapiens) (UniProt Q13555)
[10] = target: G2/mitotic-specific cyclin-B2 (Homo sapiens) (UniProt O95067)
[11] = target: G1/S-specific cyclin-E1 (Homo sapiens) (UniProt P24864)
[12] = target: Cyclin-dependent kinase 9 (Homo sapiens) (UniProt P50750)
[13] = target: MICOS complex subunit MIC19 (Homo sapiens) (UniProt Q9NX63)
[14] = target: Serine/threonine-protein kinase Chk1 (Homo sapiens) (UniProt O14757)
[15] = target: Coatomer subunit beta (Homo sapiens) (UniProt P53618)
[16] = target: Cold shock domain-containing protein E1 (Homo sapiens) (UniProt O75534)
[17] = target: Cullin-3 (Homo sapiens) (UniProt Q13618)
[18] = target: dCTP pyrophosphatase 1 (Homo sapiens) (UniProt Q9H773)
[19] = target: Proteasome adapter and scaffold protein ECM29 (Homo sapiens) (UniProt Q5VYK3)
[20] = target: Phenylalanine--tRNA ligase alpha subunit (Homo sapiens) (UniProt Q9Y285)
[21] = target: Host cell factor 1 (Homo sapiens) (UniProt P51610)
[22] = species: Homo sapiens
[23] = target: HLA class I histocompatibility antigen, A alpha chain (Homo sapiens) (UniProt P04439)
[24] = target: HLA class I histocompatibility antigen, C alpha chain (Homo sapiens) (UniProt P10321)
[25] = species: Homo sapiens; remark: listed apart in the source
[26] = target: Cytochrome c oxidase subunit 2 (Homo sapiens) (UniProt P00403)
[27] = target: Nuclear cap-binding protein subunit 1 (Homo sapiens) (UniProt Q09161)
[28] = target: NADH dehydrogenase [ubiquinone] 1 alpha subcomplex subunit 5 (Homo sapiens) (UniProt Q16718)
[29] = target: Poly [ADP-ribose] polymerase 1 (Homo sapiens) (UniProt P09874)
[30] = target: Platelet-derived growth factor receptor beta (Homo sapiens) (UniProt P09619)
[31] = target: Pyruvate dehydrogenase E1 component subunit alpha, somatic form, mitochondrial (Homo sapiens) (UniProt P08559)
[32] = target: 5'-AMP-activated protein kinase subunit beta-2 (Homo sapiens) (UniProt O43741)
[33] = target: Ras-related protein Rab-5B (Homo sapiens) (UniProt P61020)
[34] = target: Large ribosomal subunit protein eL14 (Homo sapiens) (UniProt P50914)
[35] = target: Large ribosomal subunit protein eL33 (Homo sapiens) (UniProt P18077)
[36] = target: Small ribosomal subunit protein eS24 (Homo sapiens) (UniProt P62847)
[37] = target: Small ribosomal subunit protein eS27 (Homo sapiens) (UniProt P42677)
[38] = target: Small ribosomal subunit protein eS8 (Homo sapiens) (UniProt P62241)
[39] = target: Small ribosomal subunit protein uS4 (Homo sapiens) (UniProt P46781)
[40] = target: Protein S100-A6 (Homo sapiens) (UniProt P06703)
[41] = target: Syndecan-1 (Homo sapiens) (UniProt P18827)
[42] = target: Neutral amino acid transporter B(0) (Homo sapiens) (UniProt Q15758)
[43] = target: TRAF family member-associated NF-kappa-B activator (Homo sapiens) (UniProt Q92844)
[44] = target: Serine/threonine-protein kinase TBK1 (Homo sapiens) (UniProt Q9UHD2)
[45] = target: Serine/threonine-protein kinase ULK1 (Homo sapiens) (UniProt O75385)
[46] = target: Cytochrome b-c1 complex subunit 2, mitochondrial (Homo sapiens) (UniProt P22695)
[47] = target: Ubiquitin carboxyl-terminal hydrolase 7 (Homo sapiens) (UniProt Q93009)
Further: assay method not described here.

Sequence of HLA class I histocompatibility antigen, A alpha chain (Homo sapiens) (P04439 whole entry): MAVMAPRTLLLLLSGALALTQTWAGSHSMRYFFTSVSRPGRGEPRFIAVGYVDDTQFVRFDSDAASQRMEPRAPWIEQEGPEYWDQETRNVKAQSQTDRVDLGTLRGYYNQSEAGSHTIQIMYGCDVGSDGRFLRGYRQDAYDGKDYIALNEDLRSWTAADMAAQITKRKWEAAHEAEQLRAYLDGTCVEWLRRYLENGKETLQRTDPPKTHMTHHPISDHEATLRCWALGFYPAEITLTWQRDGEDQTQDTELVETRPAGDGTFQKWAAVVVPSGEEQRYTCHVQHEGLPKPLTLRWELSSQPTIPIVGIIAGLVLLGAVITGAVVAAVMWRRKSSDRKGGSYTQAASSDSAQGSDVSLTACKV
Sequence of AP-3 complex subunit sigma-1 (Homo sapiens) (Q92572 whole entry, one chain of several): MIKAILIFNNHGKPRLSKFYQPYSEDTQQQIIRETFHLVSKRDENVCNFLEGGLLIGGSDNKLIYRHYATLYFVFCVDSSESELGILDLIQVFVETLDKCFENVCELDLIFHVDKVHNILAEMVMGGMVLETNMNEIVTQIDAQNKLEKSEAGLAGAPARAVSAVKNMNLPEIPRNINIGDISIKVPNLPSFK
Sequence of Coatomer subunit beta (Homo sapiens) (P53618 whole entry, the tested form may be a part): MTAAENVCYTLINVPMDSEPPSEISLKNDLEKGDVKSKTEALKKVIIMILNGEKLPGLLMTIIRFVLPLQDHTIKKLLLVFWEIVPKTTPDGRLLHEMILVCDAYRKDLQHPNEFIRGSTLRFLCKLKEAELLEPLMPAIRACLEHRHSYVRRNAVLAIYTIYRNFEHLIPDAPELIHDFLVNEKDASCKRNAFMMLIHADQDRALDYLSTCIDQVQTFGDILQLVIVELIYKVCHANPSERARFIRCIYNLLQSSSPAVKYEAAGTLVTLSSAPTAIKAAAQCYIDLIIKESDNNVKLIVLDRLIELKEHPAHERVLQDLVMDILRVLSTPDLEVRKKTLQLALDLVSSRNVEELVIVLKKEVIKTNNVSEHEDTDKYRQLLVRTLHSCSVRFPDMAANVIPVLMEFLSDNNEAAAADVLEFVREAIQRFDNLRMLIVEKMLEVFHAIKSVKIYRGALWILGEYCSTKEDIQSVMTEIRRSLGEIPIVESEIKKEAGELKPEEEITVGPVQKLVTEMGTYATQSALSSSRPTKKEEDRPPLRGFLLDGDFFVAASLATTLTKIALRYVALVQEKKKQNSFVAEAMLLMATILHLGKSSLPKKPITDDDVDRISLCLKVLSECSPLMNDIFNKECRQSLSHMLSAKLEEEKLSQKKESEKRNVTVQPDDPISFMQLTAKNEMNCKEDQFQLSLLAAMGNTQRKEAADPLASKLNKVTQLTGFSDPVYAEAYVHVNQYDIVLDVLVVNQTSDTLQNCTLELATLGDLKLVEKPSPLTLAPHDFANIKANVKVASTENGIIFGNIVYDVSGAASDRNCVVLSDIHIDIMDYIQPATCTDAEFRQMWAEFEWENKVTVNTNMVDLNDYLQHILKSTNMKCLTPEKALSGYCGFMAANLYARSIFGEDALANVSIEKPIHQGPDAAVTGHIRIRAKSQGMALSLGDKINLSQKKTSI
Sequence of Ephrin type-A receptor 1 (Homo sapiens) (P21709 whole entry): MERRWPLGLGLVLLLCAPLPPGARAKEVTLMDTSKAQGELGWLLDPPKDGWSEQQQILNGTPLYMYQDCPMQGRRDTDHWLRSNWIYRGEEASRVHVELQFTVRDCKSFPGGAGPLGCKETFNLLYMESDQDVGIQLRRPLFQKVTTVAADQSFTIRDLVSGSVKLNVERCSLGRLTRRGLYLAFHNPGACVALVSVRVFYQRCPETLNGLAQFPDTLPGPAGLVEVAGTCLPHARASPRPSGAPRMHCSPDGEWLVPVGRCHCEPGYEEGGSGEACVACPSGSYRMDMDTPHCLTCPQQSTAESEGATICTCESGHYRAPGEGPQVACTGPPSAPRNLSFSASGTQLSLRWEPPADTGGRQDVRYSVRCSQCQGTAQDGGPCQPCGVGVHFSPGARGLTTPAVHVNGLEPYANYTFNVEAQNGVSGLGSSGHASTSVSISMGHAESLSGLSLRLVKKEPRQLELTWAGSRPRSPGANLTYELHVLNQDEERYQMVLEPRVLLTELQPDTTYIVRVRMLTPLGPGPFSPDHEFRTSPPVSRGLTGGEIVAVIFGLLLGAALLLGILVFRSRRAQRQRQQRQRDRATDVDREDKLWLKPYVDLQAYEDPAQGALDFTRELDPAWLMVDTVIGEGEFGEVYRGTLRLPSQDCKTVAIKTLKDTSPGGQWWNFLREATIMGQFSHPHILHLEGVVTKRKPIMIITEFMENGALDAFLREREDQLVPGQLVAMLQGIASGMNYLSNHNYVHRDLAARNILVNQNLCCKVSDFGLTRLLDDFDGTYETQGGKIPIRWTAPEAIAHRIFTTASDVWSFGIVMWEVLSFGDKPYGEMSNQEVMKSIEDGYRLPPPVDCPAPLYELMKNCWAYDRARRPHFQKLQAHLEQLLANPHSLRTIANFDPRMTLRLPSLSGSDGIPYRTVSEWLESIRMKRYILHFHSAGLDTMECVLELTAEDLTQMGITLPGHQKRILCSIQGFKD
Sequence of G1/S-specific cyclin-E1 (Homo sapiens) (P24864 whole entry): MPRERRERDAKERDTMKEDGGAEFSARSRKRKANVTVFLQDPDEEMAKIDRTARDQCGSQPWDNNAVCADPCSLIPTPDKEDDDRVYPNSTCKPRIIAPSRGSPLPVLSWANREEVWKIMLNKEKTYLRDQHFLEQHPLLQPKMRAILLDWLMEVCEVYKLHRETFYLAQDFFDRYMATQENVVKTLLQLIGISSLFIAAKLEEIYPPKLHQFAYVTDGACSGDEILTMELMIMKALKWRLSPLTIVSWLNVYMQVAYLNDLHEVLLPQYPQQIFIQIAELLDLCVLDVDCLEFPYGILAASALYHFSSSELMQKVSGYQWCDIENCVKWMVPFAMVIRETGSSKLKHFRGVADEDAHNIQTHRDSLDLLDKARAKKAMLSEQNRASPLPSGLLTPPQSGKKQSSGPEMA
Sequence of Ubiquitin carboxyl-terminal hydrolase 7 (Homo sapiens) (Q93009 whole entry, looked up): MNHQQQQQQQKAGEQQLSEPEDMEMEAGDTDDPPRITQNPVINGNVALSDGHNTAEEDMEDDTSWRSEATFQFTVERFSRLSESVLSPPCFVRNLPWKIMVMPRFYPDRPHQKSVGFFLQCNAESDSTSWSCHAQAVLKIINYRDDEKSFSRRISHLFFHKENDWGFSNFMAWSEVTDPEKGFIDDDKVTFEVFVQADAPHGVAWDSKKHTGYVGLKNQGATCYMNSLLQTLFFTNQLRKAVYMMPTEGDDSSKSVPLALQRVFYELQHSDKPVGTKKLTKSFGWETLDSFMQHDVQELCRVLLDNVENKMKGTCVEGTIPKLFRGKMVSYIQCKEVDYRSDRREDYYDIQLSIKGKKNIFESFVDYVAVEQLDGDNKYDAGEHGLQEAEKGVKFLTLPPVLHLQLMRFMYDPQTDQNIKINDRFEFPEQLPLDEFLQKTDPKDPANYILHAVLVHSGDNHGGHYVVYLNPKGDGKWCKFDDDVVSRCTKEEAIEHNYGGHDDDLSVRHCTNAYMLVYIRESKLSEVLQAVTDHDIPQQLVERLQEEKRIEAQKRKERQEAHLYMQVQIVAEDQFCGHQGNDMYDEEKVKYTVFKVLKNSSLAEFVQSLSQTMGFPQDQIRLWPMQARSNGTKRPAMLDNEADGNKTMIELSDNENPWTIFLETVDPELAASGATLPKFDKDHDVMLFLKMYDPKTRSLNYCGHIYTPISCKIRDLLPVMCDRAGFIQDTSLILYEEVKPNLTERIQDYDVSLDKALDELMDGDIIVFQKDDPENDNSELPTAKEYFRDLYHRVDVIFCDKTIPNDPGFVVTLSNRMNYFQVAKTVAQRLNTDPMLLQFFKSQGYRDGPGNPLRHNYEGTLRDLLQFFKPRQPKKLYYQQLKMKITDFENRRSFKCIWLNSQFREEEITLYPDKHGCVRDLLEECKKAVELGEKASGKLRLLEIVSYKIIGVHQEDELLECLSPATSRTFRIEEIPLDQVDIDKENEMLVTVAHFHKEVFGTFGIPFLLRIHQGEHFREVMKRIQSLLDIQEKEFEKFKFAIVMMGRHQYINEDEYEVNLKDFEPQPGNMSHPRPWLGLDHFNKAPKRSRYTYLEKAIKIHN
Sequence of Serine/threonine-protein kinase B-raf (Homo sapiens) (P15056 whole entry): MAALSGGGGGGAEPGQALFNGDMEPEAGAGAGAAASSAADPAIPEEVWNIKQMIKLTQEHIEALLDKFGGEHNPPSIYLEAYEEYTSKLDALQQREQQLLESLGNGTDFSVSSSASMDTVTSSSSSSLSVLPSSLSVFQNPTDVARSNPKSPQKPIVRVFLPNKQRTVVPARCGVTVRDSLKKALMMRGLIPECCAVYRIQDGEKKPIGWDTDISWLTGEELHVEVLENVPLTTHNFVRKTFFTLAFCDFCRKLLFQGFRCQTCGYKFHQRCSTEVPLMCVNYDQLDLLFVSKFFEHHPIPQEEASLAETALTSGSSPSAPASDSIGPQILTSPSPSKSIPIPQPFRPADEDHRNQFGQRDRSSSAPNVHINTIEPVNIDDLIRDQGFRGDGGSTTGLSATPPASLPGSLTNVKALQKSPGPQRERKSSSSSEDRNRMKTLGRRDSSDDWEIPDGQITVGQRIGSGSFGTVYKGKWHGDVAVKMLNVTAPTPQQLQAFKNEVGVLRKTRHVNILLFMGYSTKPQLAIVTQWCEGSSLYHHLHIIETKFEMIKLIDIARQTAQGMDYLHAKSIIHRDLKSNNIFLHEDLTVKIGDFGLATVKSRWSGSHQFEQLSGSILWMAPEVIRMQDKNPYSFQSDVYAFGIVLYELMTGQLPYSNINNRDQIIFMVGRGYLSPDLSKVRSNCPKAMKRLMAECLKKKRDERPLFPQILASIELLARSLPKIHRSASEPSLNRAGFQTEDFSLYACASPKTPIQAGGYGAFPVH
Sequence of dCTP pyrophosphatase 1 (Homo sapiens) (Q9H773 whole entry): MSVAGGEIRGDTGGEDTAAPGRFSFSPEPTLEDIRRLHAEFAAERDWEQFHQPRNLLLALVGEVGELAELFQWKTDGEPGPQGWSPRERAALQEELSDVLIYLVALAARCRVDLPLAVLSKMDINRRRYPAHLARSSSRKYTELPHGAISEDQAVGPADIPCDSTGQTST

Work on `Cc1ccc(C(=O)Nc2cccc(C(F)(F)F)c2)cc1Nc1nc(-c2cccnc2)nc2c1cnn2C` yielded an ED50 [1] of 0.064 µM, an ED50 [2] of 0.00943 µM and an ED50 [3] of 9 µM. It also gave an ED50 [4] of 116 µM, an ED50 [5] of 1.15 µM and an ED50 [6] of 0.0206 µM. For the same compound, the ED50 [7] was 3.64 µM, the ED50 [8] was 0.11 µM and the ED50 [9] was 0.177 µM. For the same compound, the ED50 [10] was 3.13 µM, the ED50 [11] was 0.103 µM and the ED50 [12] was 4.6 µM. It also gave an ED50 [13] of 0.0271 µM, an ED50 [14] of 1.32 µM and an ED50 [15] of 0.813 µM. It also gave an ED50 [16] of 72.6 µM, an ED50 [17] of 0.0191 µM and an ED50 [18] of 5.18 µM. It also gave an ED50 [19] of 11 µM, an ED50 [20] of 0.0419 µM and an ED50 [21] of 1.41 µM. The ED50 [22] was 1.29 µM, the ED50 [23] was 19000 µM and the ED50 [24] was 3.75 µM. It also gave an ED50 [25] of 2.31 µM, an ED50 [26] of 0.449 µM and an ED50 [27] of 0.000799 µM. For the same compound, the ED50 [28] was 5.05 µM, the ED50 [29] was 7.11 µM and the ED50 [30] was 0.000102 µM. It also gave an ED50 [31] of 0.101 µM, an ED50 [32] of 0.0527 µM and an ED50 [33] of 18.1 µM. It also gave an ED50 [34] of 0.187 µM, an ED50 [35] of 0.0388 µM and an ED50 [36] of 0.357 µM. For the same compound, the ED50 [37] was 7.65 µM, the ED50 [38] was 1.62 µM and the ED50 [39] was 10.7 µM. It also gave an ED50 [40] of 0.118 µM, an ED50 [41] of 1.77 µM and an ED50 [42] of 0.0263 µM. It also gave an ED50 [43] of 13.4 µM, an ED50 [44] of 0.0187 µM and an ED50 [45] of 3.6 µM. The ED50 [46] was 0.00584 µM and the ED50 [47] was 0.00616 µM.

For `Cc1ccc(C(=O)Nc2cccc(C(F)(F)F)c2)cc1Nc1nc(-c2cccnc2)nc2nn(C)cc12`, the ED50 [1] was 4.58 µM, the ED50 [2] was 0.0072 µM and the ED50 [3] was 0.0326 µM. It also gave an ED50 [4] of 2.47 µM, an ED50 [5] of 0.126 µM and an ED50 [6] of 0.002 µM. For the same compound, the ED50 [7] was 9.35 µM, the ED50 [8] was 0.213 µM and the ED50 [9] was 0.0517 µM. The ED50 [10] was 13.5 µM, the ED50 [11] was 0.0206 µM and the ED50 [12] was 0.135 µM. The ED50 [13] was 0.0144 µM, the ED50 [14] was 20.6 µM and the ED50 [15] was 0.928 µM. For the same compound, the ED50 [16] was 0.099 µM, the ED50 [17] was 1.09 µM and the ED50 [18] was 0.0305 µM. The ED50 [19] was 1.15 µM, the ED50 [20] was 0.0801 µM and the ED50 [21] was 0.0523 µM. It also gave an ED50 [22] of 0.0274 µM, an ED50 [23] of 0.0554 µM and an ED50 [24] of 2.07 µM. It also gave an ED50 [25] of 0.716 µM, an ED50 [26] of 0.153 µM and an ED50 [27] of 1.78 µM. It also gave an ED50 [28] of 0.253 µM, an ED50 [29] of 0.083 µM and an ED50 [30] of 10 µM. It also gave an ED50 [31] of 0.492 µM, an ED50 [32] of 0.0168 µM and an ED50 [33] of 0.0327 µM. It also gave an ED50 [34] of 7.31 µM, an ED50 [35] of 0.0167 µM and an ED50 [36] of 0.314 µM. For the same compound, the ED50 [37] was 0.47 µM, the ED50 [38] was 9.51 µM and the ED50 [39] was 0.000236 µM. It also gave an ED50 [40] of 11.5 µM, an ED50 [41] of 1.07 µM and an ED50 [42] of 0.032 µM. For the same compound, the ED50 [43] was 0.0508 µM, the ED50 [44] was 3.85 µM and the ED50 [45] was 0.55 µM. The ED50 [46] was 0.00616 µM and the ED50 [47] was 0.049 µM.
